One experiment has as its target T1, human alpha-7 nAChR (Homo sapiens, UniProt P36544).
T1 construct: expressed in transfected cells; host or cells: Xenopus laevis oocytes (cRNA injection)
As to the kind of experiment: Two-electrode voltage clamp of alpha-7 nAChR expressed in Xenopus oocytes (net charge). Format: cell-based. The gist of the method:
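Human α7 nAChR co-expressed with RIC-3 in Xenopus oocytes; two-electrode clamp at −60 mV, 12 s applications in Ringer's pH 7.3. Net charge integrated over 120 s from application, normalized to prior ACh controls; measured for compound alone and with choline or ACh; n≥4 oocytes.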
A general note: Two-electrode voltage clamp is typically applied to oocytes expressing channels or transporters.

The subject of another experiment is CFA-injected mice. As to the kind of experiment: Complete Freund's Adjuvant test (mechanical allodynia, thermal hyperalgesia). Type of experiment: in vivo, mouse. As for the experimental part: Mice were injected with 20 μl of CFA (0.5 mg/ml of heat killed Mycobacterium tuberculosis, Sigma) in the intraplantar region of the right hindpaw. Paw diameter and thermal hyperalgesia (see paw withdrawal test) were measured 3 days after CFA injection. In separate groups of mice that received CFA, mechanical allodynia thresholds were determined according to previously published method (Ondachi et. al. J Med Chem. 2014 Feb. 13; 57(3):836-48. doi: 10.1021/jm401602p). Mice were placed in a plexiglas cage with mesh metal flooring and allowed to acclimate for 30 min before testing. A series of calibrated von Frey filaments (Stoelting, Wood Dale, Ill.) with logarithmically incremental stiffness ranging from 2.83 to 5.88 expressed as log 10 of [10 £ force in (mg)] were applied to the paw with a modified up-down method. In the absence of a paw withdrawal response to the initially selected filament, a thicker filament corresponding to a stronger stimulus was presented. In the event of paw withdrawal, the next weaker stimulus was chosen. Each hair was presented perpendicularly against the paw, with sufficient force to cause slight bending, and held 2-3 s. The stimulation of the same intensity was applied 5 times to the hindpaw at intervals of a few seconds. Three or more responses out of five stimulations were coded as a positive response. Once a positive response was detected, sequentially lower weight filaments were used to assess the sensory threshold for each paw. The allodynia scores were recorded in a blinded fashion.
A similar sequence of drug treatment described for the formalin testing was used to test the antinociceptive effects of alpha-7 nAChRs ago-PAMs in the CFA model of inflammatory pain. […] Paw diameter and mechanical allodynia will be measured 3 days after CFA injection. We assessed the dose-response relationship of […]7 nAChRs ago-PAMs (4 doses) in reversing CFA-induced mechanical allodynia and paw edema.

In the next experiment the test system is CCI mice. The experiment is described as follows: Chronic constriction injury (CCI) model, mechanical allodynia (von Frey). Type of experiment: in vivo, mouse. On the procedure:
Mice were anesthetized with pentobarbital (45 mg/kg, i.p.). An incision was made just below the hipbone, parallel to the sciatic nerve. The right common sciatic nerve was exposed at the level proximal to the sciatic trifurcation, and a nerve segment 3-5 mm long was separated from surrounding connective tissue. Two loose ligatures with 6-0 silk suture were made around the nerve with a 1.0-1.5 mm interval between them. Muscles were closed with suture thread and the wound with wound clips. […] Any suture that remained after two weeks was removed from the healed surgical wound. Mechanical allodynia (von Frey test) was measured before and after drug injections.
The antiallodynic effects of test compounds were assessed in three experiments consisting of CCI mice and sham control mice. […] The anti-allodynic effects of alpha-7 nAChRs PAMs and ago-PAMs were tested (four doses and vehicle control, N=10 mice/group, administered i.p.) in the CCI model. Mice were assessed for mechanical allodynia 2 weeks after the CCI surgery. All these studies will be conducted in blinded manner. CCI and sham control mice received two conditioning sessions per day (vehicle in the morning and drug in the afternoon) over the course of 3 days, and were tested for a place preference on day 7 without any injections.
Pain behavioral data are presented as mean±S.E.M. (see FIGS. 5A and 5B). Statistical analysis was performed using the t-test or two-way analysis of variance test, followed by the post-hoc Bonferroni's test. All differences were considered significant at p<0.05, and significant differences are shown with asterisks in FIGS. 5A and 5B. ED50 values with 95% confidence limits (CL) were calculated by unweighted least-squares linear regression.

One molecule from patent US11299496B2, “Ligands for alpha-7 nicotinic acetylcholine receptors and methods of treating neurological and inflammatory conditions” (Northeastern University, priority 2014, dated 2022) can be followed below.

T1 sequence (P36544 23-502): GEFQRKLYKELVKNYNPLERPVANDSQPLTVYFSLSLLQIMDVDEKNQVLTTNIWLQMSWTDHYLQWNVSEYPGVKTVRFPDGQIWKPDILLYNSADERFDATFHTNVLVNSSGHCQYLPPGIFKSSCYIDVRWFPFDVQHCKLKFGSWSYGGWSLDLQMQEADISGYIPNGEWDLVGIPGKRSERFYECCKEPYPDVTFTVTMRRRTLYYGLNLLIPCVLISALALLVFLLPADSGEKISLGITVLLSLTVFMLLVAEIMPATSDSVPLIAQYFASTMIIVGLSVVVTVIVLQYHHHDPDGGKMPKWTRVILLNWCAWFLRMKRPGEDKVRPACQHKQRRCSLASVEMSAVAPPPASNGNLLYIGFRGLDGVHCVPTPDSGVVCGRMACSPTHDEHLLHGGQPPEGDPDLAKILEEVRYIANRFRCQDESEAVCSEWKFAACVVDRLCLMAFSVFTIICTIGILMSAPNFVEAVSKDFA

`NS(=O)(=O)c1ccc2c(c1)[C@H]1C=CC[C@H]1[C@@H](c1ccc(Br)cc1)N2` [Compound 1, (3aR,4S,9bS)-4-(4-bromophenyl)-3a,4,5,9b-tetrahydro-3H-cyclopenta[c]quinoline-8-sulfonamide]: the “Charge Alone” value on human alpha-7 nAChR (compound alone acting as an allosteric agonist, area under the curve of current vs. time) turned out to be 450. Further, the “Charge +C” value at human alpha-7 nAChR (compound together with choline or ACh, includes PAM and ago-PAM activity, area under the curve of current vs. time) was found to be 1700. For the same molecule, the “activity of separated enantiomer vs racemate 4BP-TQS” value on human alpha-7 nAChR (enantioseparation and electrophysiological characterization) is given as “all the activity of the racemate of 4BP-TQS lies in one enantiomer”. In addition, in the experiment on CFA-injected mice (data not shown), the “antiallodynic and antihyperalgesic effects after MLA” value is “MLA blocked the effects”. The “duration of antiallodynic effect” value in the experiment on CFA-injected mice (i.p., dose dependent) was found to be 180 min. The “duration of antihyperalgesic effect” value with CFA-injected mice (mouse, in vivo) is 60 min. Also, the “anti-allodynic effect in CCI mice” value in the experiment with CCI mice (i.p., FIG. 5A) is recorded as “significant anti-allodynic effect”. For the same molecule, in the experiment on CCI mice (sham control mice), the “effect on sham mice” value is on record as “no effect on sham mice”.
